Reference: patent US9540330B2, “Oligomer-containing hydantoin compounds” (Nektar Therapeutics, priority 2010, dated 2017)

How the values were obtained:
[1] = target: sodium channels in isolated cardiac cells (human atrial myocytes) (Homo sapiens, UniProt Q14524); experiment: Sodium current (INa) block in isolated human atrial myocytes, whole-cell patch clamp; format: cell-based; details: pacing rates 0.1, 1 and 3 Hz, FIG. 2
Protocol: Phenyloin and compounds prepared in accordance with Example 1 were evaluated in vitro to determine their ability to block sodium channels in isolated cardiac cells (human atrial myocytes) using the whole-cell patch clamp method
Human myocytes were obtained from specimens of human right atrial appendages obtained during surgery from hearts of patients undergoing cardiopulmonary bypass surgery. The procedure produced rod-shaped, ion tolerant cells which were used within 24 hours after isolation. See Crumb et al. (1995) Am J Physiol 268:H1335-H1342. […]
After rupture of the cell membrane (entering whole-cell mode), current kinetics and amplitudes were allowed to stabilize as the cell was dialyzed with internal solution and paced at 3 Hz (3-5 minutes). Sodium current (INa) was measured using a voltage pulse to −20 mV (40 ms pulse duration) from a holding potential of −80 mV. Peak inward current was measured for INa. […]
Currents and voltages were recorded with patch-clamp amplifiers (Axopatch 1-B, Axon Instruments). […] Data was presented as % reduction of current amplitude, measured as current reduction after a steady-state effect had been reached in the presence of test article relative to current amplitude before introduction of test article (control). […]

[2] = target: T1, cloned human hERG channel (Homo sapiens, UniProt Q12809); experiment: hERG current block in HEK cells, whole-cell patch clamp; format: cell-based; details: HEK cells expressing cloned human hERG channel, 37±1° C., peak current at −40 mV; read-out: hERG (μM), IC50 for inhibition of hERG
T1 construct: expressed in transfected cells; host or cells: HEK cells
T1 sequence (Q12809 whole entry): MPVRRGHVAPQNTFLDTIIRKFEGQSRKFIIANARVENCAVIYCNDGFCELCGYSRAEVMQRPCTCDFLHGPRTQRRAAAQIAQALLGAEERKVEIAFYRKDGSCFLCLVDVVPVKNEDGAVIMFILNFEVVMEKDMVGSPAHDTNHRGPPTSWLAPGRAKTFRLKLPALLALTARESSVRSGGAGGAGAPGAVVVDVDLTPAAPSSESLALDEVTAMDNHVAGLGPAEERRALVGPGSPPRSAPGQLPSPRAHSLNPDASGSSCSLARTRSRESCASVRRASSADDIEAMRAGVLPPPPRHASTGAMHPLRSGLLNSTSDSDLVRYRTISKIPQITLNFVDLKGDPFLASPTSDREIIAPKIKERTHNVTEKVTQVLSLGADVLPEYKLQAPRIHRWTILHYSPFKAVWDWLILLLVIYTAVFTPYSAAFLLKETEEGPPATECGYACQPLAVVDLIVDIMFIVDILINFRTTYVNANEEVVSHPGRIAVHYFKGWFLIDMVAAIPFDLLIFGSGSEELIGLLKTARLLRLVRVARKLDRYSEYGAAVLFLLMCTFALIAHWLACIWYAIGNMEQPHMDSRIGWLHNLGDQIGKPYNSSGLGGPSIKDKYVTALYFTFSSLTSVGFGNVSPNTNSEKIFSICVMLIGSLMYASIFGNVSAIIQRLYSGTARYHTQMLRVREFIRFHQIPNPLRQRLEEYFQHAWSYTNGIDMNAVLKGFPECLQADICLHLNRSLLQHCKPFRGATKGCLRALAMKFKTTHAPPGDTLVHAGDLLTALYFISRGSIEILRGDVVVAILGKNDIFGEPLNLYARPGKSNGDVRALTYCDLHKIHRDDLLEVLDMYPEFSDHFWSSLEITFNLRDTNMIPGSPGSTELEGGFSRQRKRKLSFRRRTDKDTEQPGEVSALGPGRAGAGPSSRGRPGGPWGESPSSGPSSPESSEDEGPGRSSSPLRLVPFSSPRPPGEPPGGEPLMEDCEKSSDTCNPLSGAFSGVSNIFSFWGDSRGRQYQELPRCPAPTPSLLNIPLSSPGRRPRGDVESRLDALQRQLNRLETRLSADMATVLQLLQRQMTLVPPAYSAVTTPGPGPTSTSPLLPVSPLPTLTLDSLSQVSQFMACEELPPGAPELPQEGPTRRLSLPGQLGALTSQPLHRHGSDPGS
Protocol: Electrophysiological measurements of hERG current were made in vitro to assess the hERG block produced by the phenyloin conjugates. hERG currents were measured in HEK cells expressing the cloned human hERG channel using the whole-cell variant of the patch clamp method. Experiments were performed at 37±1° C. hERG current was elicited by a step pulse to +10 mV for 500 ms from a holding potential of −75 mV, followed by a pulse to −40 mV for 500 ms. Peak current was measured from the pulse to −40 mV. Six concentrations of each test compound were added to the cell in a cumulative manner starting with the lowest test concentration. Each cell served as its own control and data are presented as % reduction of current amplitude achieved in the presence of drug.

Sequence of sodium channels in isolated cardiac cells (human atrial myocytes) (Q14524 whole entry): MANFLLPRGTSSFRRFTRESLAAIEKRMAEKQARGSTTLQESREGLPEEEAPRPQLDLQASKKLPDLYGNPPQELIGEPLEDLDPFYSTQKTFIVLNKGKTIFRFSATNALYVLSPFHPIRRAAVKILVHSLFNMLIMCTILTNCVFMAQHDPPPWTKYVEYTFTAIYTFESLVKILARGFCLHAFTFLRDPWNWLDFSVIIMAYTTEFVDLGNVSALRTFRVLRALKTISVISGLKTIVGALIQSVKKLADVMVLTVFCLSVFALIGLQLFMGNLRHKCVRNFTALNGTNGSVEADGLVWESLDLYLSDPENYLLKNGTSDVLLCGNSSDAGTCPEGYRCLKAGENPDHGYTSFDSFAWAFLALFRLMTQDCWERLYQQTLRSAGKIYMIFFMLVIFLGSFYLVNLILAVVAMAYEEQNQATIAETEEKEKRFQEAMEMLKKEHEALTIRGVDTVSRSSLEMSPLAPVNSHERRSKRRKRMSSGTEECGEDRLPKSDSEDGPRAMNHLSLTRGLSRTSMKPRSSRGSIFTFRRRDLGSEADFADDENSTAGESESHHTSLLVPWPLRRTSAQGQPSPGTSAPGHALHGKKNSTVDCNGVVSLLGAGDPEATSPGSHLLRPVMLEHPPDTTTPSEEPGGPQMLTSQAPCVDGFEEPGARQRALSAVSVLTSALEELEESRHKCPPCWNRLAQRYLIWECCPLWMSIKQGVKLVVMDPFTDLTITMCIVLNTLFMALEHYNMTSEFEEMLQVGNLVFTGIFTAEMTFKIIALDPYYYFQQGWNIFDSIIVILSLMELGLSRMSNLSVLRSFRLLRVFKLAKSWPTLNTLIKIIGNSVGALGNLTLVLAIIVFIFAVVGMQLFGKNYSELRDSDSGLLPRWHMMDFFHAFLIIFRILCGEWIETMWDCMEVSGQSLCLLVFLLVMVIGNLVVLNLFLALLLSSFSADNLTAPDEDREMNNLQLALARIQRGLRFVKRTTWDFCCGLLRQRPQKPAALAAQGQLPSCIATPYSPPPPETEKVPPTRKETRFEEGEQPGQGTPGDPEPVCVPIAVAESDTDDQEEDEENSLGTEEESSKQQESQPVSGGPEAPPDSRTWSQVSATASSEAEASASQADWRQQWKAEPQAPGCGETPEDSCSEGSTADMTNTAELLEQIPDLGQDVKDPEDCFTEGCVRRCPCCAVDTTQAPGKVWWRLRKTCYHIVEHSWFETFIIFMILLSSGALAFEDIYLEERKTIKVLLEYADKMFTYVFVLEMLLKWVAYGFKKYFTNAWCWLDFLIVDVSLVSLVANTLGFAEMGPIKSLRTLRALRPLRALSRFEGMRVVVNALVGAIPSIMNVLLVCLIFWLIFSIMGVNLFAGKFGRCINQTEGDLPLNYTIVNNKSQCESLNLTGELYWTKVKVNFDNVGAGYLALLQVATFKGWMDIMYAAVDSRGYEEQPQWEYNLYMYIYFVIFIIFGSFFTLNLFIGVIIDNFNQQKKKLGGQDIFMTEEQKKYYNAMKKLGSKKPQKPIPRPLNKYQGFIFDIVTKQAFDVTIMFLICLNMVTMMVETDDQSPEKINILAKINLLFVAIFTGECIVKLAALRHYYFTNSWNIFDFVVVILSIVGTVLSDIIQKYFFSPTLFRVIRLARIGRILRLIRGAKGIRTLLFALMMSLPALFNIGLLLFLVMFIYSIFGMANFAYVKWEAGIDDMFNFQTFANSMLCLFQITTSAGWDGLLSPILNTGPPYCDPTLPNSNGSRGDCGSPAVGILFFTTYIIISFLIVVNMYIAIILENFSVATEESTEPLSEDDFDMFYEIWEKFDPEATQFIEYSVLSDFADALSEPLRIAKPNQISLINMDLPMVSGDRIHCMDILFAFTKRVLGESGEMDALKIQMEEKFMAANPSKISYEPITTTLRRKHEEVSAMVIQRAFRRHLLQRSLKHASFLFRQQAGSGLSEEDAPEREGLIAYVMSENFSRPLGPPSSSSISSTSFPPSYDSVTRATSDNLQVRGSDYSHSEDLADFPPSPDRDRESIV

Q: How did the “frequency-dependence of sodium channel block (in words)” value [1] turn out when `O=C1NC(=O)C(c2ccccc2)(c2ccccc2)N1` [Phenytoin, 5,5-diphenylhydantoin] was run?
A: The value was “frequency-dependent block of sodium channels”.

Q: For `COCCOCCOCCOCCN1C(=O)NC(=O)C1(c1ccccc1)c1ccccc1` [mPEG4-N-Phenytoin], which IC50 [2] is on record?
A: Its IC50 is 88.9 µM.

Q: For `COCCOCCOCCOCCOCCN1C(=O)NC(=O)C1(c1ccccc1)c1ccccc1` [mPEG5-N-Phenytoin], which IC50 [2] is on record?
A: The IC50 was greater than 100 µM.

Q: `COCCOCCOCCOCCOCCOCCOCCN1C(=O)NC(=O)C1(c1ccccc1)c1ccccc1` [mPEG7-N-Phenytoin] was tested. Which IC50 [2] did it give?
A: Its IC50 is greater than 100 µM.
